Test results as given in US12595239B2, “Substituted isoxazoline derivatives” (BASF SE, priority 2021, dated 2026).

Legend:
Type in all cases: in vivo
Plutella xylostella = test: B.6 Diamond Back Moth, cabbage leaf disc dip test; details: foliar, 3rd instar larvae, 72 hours after treatment, read-out: mortality in comparison with untreated controls
Description: The active compound was dissolved at the desired concentration in a mixture of 1:1 (vol:vol) distilled water:acetone. Surfactant (Kinetic) was added at a rate of 0.01% (vol/vol). The test solution was prepared at the day of use. Cabbage leaf discs (60 mm in diameter) were dipped in test solution and air-dried. Treated leaves were placed in petri dishes lined with moistened filter paper and inoculated with ten 3rd instar larvae. Mortality was recorded 72 hours after treatment. Feeding damages were also recorded using a scale of 0-100%.

Dichromothrips corbetti = test: B.7 Orchid Thrips, floral-immersion test; details: adult thrips, 72 hours after treatment, read-out: mortality in comparison with untreated controls
Description: Dichromothrips corbetti adults used for bioassay were obtained from a colony maintained continuously under laboratory conditions. For testing purposes, the test compound was diluted in a 1:1 mixture of acetone:water (vol:vol), plus Kinetic at a rate of 0.01% v/v.
Thrips potency of each compound was evaluated by using a floral-immersion technique. Each orchid petal was dipped into treatment solution and allowed to dry in Petri dishes. Treated petals were placed into individual re-sealable plastic along with about 20 adult thrips. All test arenas were held under dark condition and a temperature of about 28° C. for duration of the assay. The percent mortality was recorded 72 hours after treatment.

Spodoptera eridania = test: B.11 Southern Armyworm 2nd instar larvae, lima bean foliar spray test; details: 96 h, 4 days after treatment, read-out: mortality in comparison with untreated controls
Description: The active compounds were formulated by a Tecan liquid handler in 100% cyclohexanone as a 10′000 ppm solution supplied in tubes. The 10′000 ppm solution was serially diluted in 100% cyclohexanone to make interim solutions. These served as stock solutions for which final dilutions were made by the Tecan in 50% acetone:50% water (v/v) into 10 or 20 ml glass vials. A nonionic surfactant (Kinetic®) was included in the solution at a volume of 0.01% (v/v). The vials were then inserted into an automated electrostatic sprayer equipped with an atomizing nozzle for application to plants/insects. Lima bean plants (variety Sieva) were grown 2 plants to a pot and selected for treatment at the 1st true leaf stage. Test solutions were sprayed onto the foliage by an automated electrostatic plant sprayer equipped with an atomizing spray nozzle. The plants were dried in the sprayer fume hood and then removed from the sprayer. Each pot was placed into perforated plastic bags with a zip closure. Ten to 11 armyworm larvae were placed into the bag and the bags zipped closed. Test plants were maintained in a growth room at about 25° C. and about 20-40% relative humidity for 4 days, avoiding direct exposure to fluorescent light (14:10 light:dark photo-period) to prevent trapping of heat inside the bags. Mortality and reduced feeding were assessed 4 days after treatment, compared to untreated control plants.

Anthonomus grandis = test: B.1 Boll weevil (Anthonomus grandis), 96-well microtiter plate diet test; details: 120 h, egg and larval mortality, 5 days, read-out: mortality in comparison with untreated controls
Description: For evaluating control of boll weevil, the test unit consisted of 96-well-microtiter plates containing an insect diet and 5-10 A. grandis eggs.
The compounds were formulated using a solution containing 75% v/v water and 25% v/v DMSO. Different concentrations of formulated compounds were sprayed onto the insect diet at 5 μl, using a custom-built micro atomizer, at two replications.
After application, microtiter plates were incubated at about 25±1° C. and about 75±5% relative humidity for 5 days. Egg and larval mortality were then visually assessed.

Bemisia argentifolii = test: B.12 Silverleaf Whitefly (adults), cotton plant spray test; details: 72 h, 3 days after treatment, read-out: mortality in comparison with untreated controls
Description: The active compounds were formulated by a Tecan liquid handler in 100% cyclohexanone as a 10,000-ppm solution supplied in tubes. The 10,000-ppm solution was serially diluted in 100% cyclohexanone to make interim solutions. These served as stock solutions for which final dilutions were made by the Tecan in 50% acetone:50% water (v/v) into 5 or 10 ml glass vials. A nonionic surfactant (Kinetic®) was included in the solution at a volume of 0.01% (v/v). The vials were then inserted into an automated electrostatic sprayer equipped with an atomizing nozzle for application to plants/insects. Cotton plants at the cotyledon stage (one plant per pot) were sprayed by an automated electrostatic plant sprayer equipped with an atomizing spray nozzle. The plants were dried in the sprayer fume hood and then removed from the sprayer. Each pot was placed into a plastic cup and about 10 to 12 whitefly adults (approximately 3-5 days old) were introduced. The insects were collected using an aspirator and a nontoxic Tygon® tubing connected to a barrier pipette tip. The tip, containing the collected insects, was then gently inserted into the soil containing the treated plant, allowing insects to crawl out of the tip to reach the foliage for feeding. Cups were covered with a reusable screened lid. Test plants were maintained in a growth room at about 25° C. and about 20-40% relative humidity for 3 days, avoiding direct exposure to fluorescent light (14:10 light:dark photoperiod) to prevent trapping of heat inside the cup. Mortality was assessed 3 days after treatment, compared to untreated control plants.

Myzus persicae = test: B.3 Green Peach Aphid (mixed life stages), systemic artificial diet test; details: 72 h, treated aphid diet, 3 days, read-out: mortality in comparison with untreated controls
Excerpt: For evaluating control of Green Peach Aphid through systemic means the test unit consisted of 96-well-microtiter plates containing liquid artificial diet under an artificial membrane. The compounds were formulated using a solution containing 75% v/v water and 25% v/v DMSO. Different concentrations of formulated compounds were pipetted into the aphid diet, using a custom-built pipette, at two replications. After application, 5-8 adult aphids were placed on the artificial membrane inside the microtiter plate wells. The aphids were then allowed to suck on the treated aphid diet and incubated at about 23±1° C. and about 50±5% relative humidity for 3 days. Aphid mortality and fecundity was then visually assessed.

Heliothis virescens = test: B.4 Tobacco Budworm, microtiter plate diet test; details: 120 h, egg and larval mortality, 5 days, read-out: mortality in comparison with untreated controls
Description: For evaluating control of Tobacco Budworm, the test unit consisted of 96-well-microtiter plates containing an insect diet and 15-25 H. virescens eggs. The compounds were formulated using a solution containing 75% v/v water and 25% v/v DMSO. Different concentrations of formulated compounds were sprayed onto the insect diet at 10 μl, using a custom-built micro atomizer, at two replications. After application, microtiter plates were incubated at about 28±1° C. and about 80±5% relative humidity for 5 days. Egg and larval mortality was then visually assessed.

Aedes aegypti = test: whole plant or invertebrate; details: 48 h, larval mortality, 2 days, read-out: mortality in comparison with untreated controls
Description: For evaluating control of Yellow Fever Mosquito, the test unit consisted of 96-well-microtiter plates containing 200 μl of tap water per well and 5-15 freshly hatched A. aegypti larvae. The active compounds were formulated using a solution containing 75% (v/v) water and 25% (v/v) DMSO. Different concentrations of formulated compounds or mixtures were sprayed onto the insect diet at 2.5 μl, using a custom-built micro atomizer, at two replications.
After application, microtiter plates were incubated at 28±1° C., 80±5% RH for 2 days. Larval mortality was then visually assessed.

O=C(NC1CN(S(=O)(=O)C(F)F)C1)c1cc(NC2=NOC(c3cc(Cl)c(F)c(Cl)c3)(C(F)(F)F)C2)ccc1Cl (stereo not shown) [I-41, 2-chloro-5-[[5-(3,5-dichloro-4-fluoro-phenyl)-5-(trifluoromethyl)-4H-isoxazol-3-yl]amino]-N-[1-(difluoromethylsulfonyl)azetidin-3-yl]benzamide]
≥ 75%: mortality at 300 ppm (Plutella xylostella) | mortality at 300 ppm (Dichromothrips corbetti) | mortality at 300 ppm (Spodoptera eridania)

N#CC1(NC(=O)c2c(F)ccc(NC3=NOC(c4cc(Cl)cc(Cl)c4)(C(F)(F)F)C3)c2F)CC1 (stereo not shown) [I-30, N-(1-cyanocyclopropyl)-3-[[5-(3,5-dichlorophenyl)-5-(trifluoromethyl)-4H-isoxazol-3-yl]amino]-2,6-difluoro-benzamide]
≥ 75%: mortality at 2500 ppm (Anthonomus grandis) | mortality at 300 ppm (Plutella xylostella) | mortality at 300 ppm (Dichromothrips corbetti) | mortality at 300 ppm (Spodoptera eridania)

O=C(Nc1cnccc1F)c1cc(NC2=NOC(c3cc(Cl)c(F)c(Cl)c3)(C(F)(F)F)C2)ccc1Cl (stereo not shown) [I-62, 2-chloro-5-[[5-(3,5-dichloro-4-fluoro-phenyl)-5-(trifluoromethyl)-4H-isoxazol-3-yl]amino]-N-(4-fluoro-3-pyridyl)benzamide]
≥ 75%: mortality at 300 ppm (Plutella xylostella) | mortality at 300 ppm (Dichromothrips corbetti)

CCOC(=O)N(C1=NOC(c2cc(Cl)cc(Cl)c2)(C(F)(F)F)C1)c1ccc(Cl)c(C(=O)N(C(=O)OCC)C2(C#N)CC2)c1 (stereo not shown) [I-100, ethyl N-[4-chloro-3-[(1-cyanocyclopropyl)-ethoxycarbonyl-carbamoyl]-phenyl]-N-[5-(3,5-dichlorophenyl)-5-(trifluoromethyl)-4H-isoxazol-3-yl]carbamate]
≥ 75%: mortality at 300 ppm (Plutella xylostella) | mortality at 300 ppm (Dichromothrips corbetti) | mortality at 300 ppm (Spodoptera eridania) | mortality at 300 ppm (Bemisia argentifolii)

CN(C1=NOC(c2cc(Cl)cc(Cl)c2)(C(F)(F)F)C1)c1ccc(Cl)c(C(=O)NC2(c3cnn(C)c3)CC2)c1 (stereo not shown) [I-125, 2-chloro-5-[[5-(3,5-dichlorophenyl)-5-(trifluoromethyl)-4H-isoxazol-3-yl]-methyl-amino]-N-[1-(1-methylpyrazol-4-yl)cyclopropyl]benzamide]
≥ 75%: mortality at 2500 ppm (Anthonomus grandis) | mortality at 2500 ppm (Myzus persicae) | mortality at 2500 ppm (Heliothis virescens) | mortality at 300 ppm (Plutella xylostella) | mortality at 300 ppm (Dichromothrips corbetti)

O=C(Nc1ccc(F)cc1F)c1cc(NC2=NOC(c3cc(Cl)cc(Cl)c3)(C(F)(F)Cl)C2)ccc1Cl (stereo not shown) [I-131, 2-chloro-5-[[5-[chloro(difluoro)methyl]-5-(3,5-dichlorophenyl)-4H-isoxazol-3-yl]amino]-N-(2,4-difluorophenyl)benzamide]
≥ 75%: mortality at 2500 ppm (Anthonomus grandis) | mortality at 2500 ppm (Myzus persicae) | mortality at 2500 ppm (Heliothis virescens) | mortality at 2500 ppm (Aedes aegypti) | mortality at 300 ppm (Plutella xylostella) | mortality at 300 ppm (Dichromothrips corbetti) | mortality at 300 ppm (Spodoptera eridania)

CC(C)(C#N)NC(=O)c1cc(NC2=NOC(c3cc(Cl)c(F)c(Cl)c3)(C(F)(F)F)C2)ccc1Cl (stereo not shown) [I-58, 2-chloro-N-(1-cyano-1-methyl-ethyl)-5-[[5-(3,5-dichloro-4-fluoro-phenyl)-5-(trifluoromethyl)-4H-isoxazol-3-yl]amino]benzamide]
≥ 75%: mortality at 300 ppm (Plutella xylostella) | mortality at 300 ppm (Dichromothrips corbetti) | mortality at 300 ppm (Spodoptera eridania)

O=C(Nc1ccc(F)cc1F)c1cccc(NC2=NOC(c3cc(Cl)cc(Cl)c3)(C(F)(F)F)C2)c1F (stereo not shown) [I-48, 3-[[5-(3,5-dichlorophenyl)-5-(trifluoromethyl)-4H-isoxazol-3-yl]amino]-N-(2,4-difluoro-phenyl)-2-fluoro-benzamide]
≥ 75%: mortality at 300 ppm (Plutella xylostella) | mortality at 300 ppm (Dichromothrips corbetti) | mortality at 300 ppm (Spodoptera eridania)

O=C(NC1(c2ccnnc2)CC1)c1cc(NC2=NOC(c3cc(Cl)cc(Cl)c3)(C(F)(F)F)C2)ccc1Cl (stereo not shown) [I-162, 2-chloro-5-[[5-(3,5-dichlorophenyl)-5-(trifluoromethyl)-4H-isoxazol-3-yl]amino]-N-(1-pyridazin-4-ylcyclopropyl)benzamide]
≥ 75%: mortality at 2500 ppm (Anthonomus grandis) | mortality at 2500 ppm (Aedes aegypti) | mortality at 300 ppm (Plutella xylostella) | mortality at 300 ppm (Spodoptera eridania) | mortality at 300 ppm (Bemisia argentifolii)

O=C(Nc1ccc(F)c(NC(=O)C(F)F)c1F)c1cc(NC2=NOC(c3cc(Cl)cc(Cl)c3)(C(F)(F)F)C2)ccc1Cl (stereo not shown) [I-6, 2-chloro-5-[[5-(3,5-dichlorophenyl)-5-(trifluoromethyl)-4H-isoxazol-3-yl]amino]-N-[3-[(2,2-difluoroacetyl)amino]-2,4-difluoro-phenyl]benzamide]
≥ 75%: mortality at 300 ppm (Plutella xylostella) | mortality at 300 ppm (Dichromothrips corbetti)

O=C(N[C@@H]1CON(CC(F)(F)F)C1=O)c1cc(NC2=NOC(c3cc(Cl)c(F)c(Cl)c3)(C(F)(F)F)C2)ccc1Cl (stereo partly drawn) [I-114, 2-chloro-5-[[5-(3,5-dichloro-4-fluoro-phenyl)-5-(trifluoromethyl)-4H-isoxazol-3-yl]amino]-N-[(4R)-3-oxo-2-(2,2,2-trifluoroethyl)isoxazolidin-4-yl]benzamide]
≥ 75%: mortality at 300 ppm (Plutella xylostella) | mortality at 300 ppm (Dichromothrips corbetti) | mortality at 300 ppm (Spodoptera eridania) | mortality at 300 ppm (Bemisia argentifolii)

N#CC1(NC(=O)c2cc(S(=O)(=O)C3=NOC(c4cc(Cl)cc(Cl)c4)(C(F)(F)F)C3)ccc2Cl)CC1 (stereo not shown) [II-3, 2-chloro-N-(1-cyanocyclopropyl)-5-[[5-(3,5-dichlorophenyl)-5-(trifluoromethyl)-4H-isoxazol-3-yl]sulfonyl]benzamide]
≥ 75%: mortality at 300 ppm (Plutella xylostella)
